A short description of series [1]: Stability in Simulated Intestinal Fluid (SIF). It is filed as in vitro ADME. The note with it: for Assay 2 (SIF) (% @ Remaining 4 hours): SIF pH 6.7 with pancreatin, 1 μM, 37° C.; for selective delivery to the upper intestine: conclusion drawn from Table 1 (SGF and SIF stability). The protocol:
SIF Stability of acylated active agents in Simulated Intestinal Fluid (SIF). This assay was used to assess the stability of an acylated active agent in a small intestine.
Phosphate buffer was prepared by dissolving 0.42 g of sodium hydroxide pellets and 3.95 g of monobasic sodium phosphate monohydrate and 6.19 g of sodium chloride in ultrapure water (MilliQ®, Millipore Sigma, Darmstadt, Germany). The pH was adjusted to 6.7 using aq. HCl and aq. NaOH, as necessary, and the solution was diluted with ultrapure water to produce 1 L of the pH 6.7 buffer.
112 mg FaSSIF powder (Biorelevant™, London, UK) was dissolved in 50 mL of the pH 6.7 buffer. 2 to 3 mL of the resulting solution were then added to 500 mg pancreatin (Millipore Sigma, Darmstadt, Germany). The resulting mixture was agitated by finger tapping the vessel containing the mixture until milky suspension formed. At this time, the remainder of the 50 mL FaSSiF/pH 6.7 buffer solution was added. The resulting suspension was flipped upside down 10 times to produce SIF, which was used fresh.
Test compounds were dissolved in DMSO stock to 1 mM. An aliquot of the DMSO stock solution was removed and diluted in the SIF media in 15 mL falcon tubes to produce a mixture with a tested compound concentration of 1 μM. A 1 mL aliquot was immediately removed and diluted once with 1 volume of acetonitrile for T0 timepoint. The mixture was sealed and agitated at 37° C. in an incubator. Aliquots (1 mL) were removed at regular intervals and immediately quenched by the addition of 1 volume of acetonitrile. The resulting samples were analyzed by LC/MS to determine degradation rates.

Series [2] in a line: Stability in Simulated Gastric Fluid (SGF). The conditions noted are these: SGF pH 1.6 with pepsin, 1 μM, 37° C. It is filed as in vitro ADME. How it is done: Stability of acylated active agents in Simulated Gastric Fluid (SGF). This assay was used to assess the stability of an acylated active agent in a stomach.
Medium was prepared by dissolving 2 g of sodium chloride in 0.6 L in ultrapure water (MilliQ®, Millipore Sigma, Darmstadt, Germany). The pH was adjusted to 1.6 with 1N hydrochloric acid, and the volume was then adjusted to 1 L with purified water.
60 mg FaSSIF powder (Biorelevant™, London, UK) were dissolved in 500 mL buffer (above). Pepsin was added (0.1 mg/mL) (Millipore Sigma, Darmstadt, Germany), and the solution was stirred. The resulting SGF media were used fresh for each experiment.
Test compounds were dissolved in DMSO stock to 1 mM. An aliquot of the DMSO stock solution was removed and diluted in the SGF Media in 15 mL falcon tubes to generate a total compound concentration of 1 μM. A 1 mL aliquot was immediately removed and diluted once with 1 volume of acetonitrile for T0 timepoint. The mixture was sealed and mixed at 37° C. in an incubator. Aliquots (1 mL) were removed at regular intervals and immediately quenched by the addition of 1 volume of acetonitrile. The resulting samples were analyzed by LC/MS to determine degradation rates

Series [3] is described as follows: Fecal Incubation Stability. The note with it: fecal slurry, anaerobic, 1 or 10 μM. It is filed as in vitro ADME. How it is done:
Fecal Incubation Stability. This assay was used to assess the stability of an acylated active agent in a large intestine. All experiments were performed in an anaerobic chamber containing 90% nitrogen, 5% hydrogen and 5% carbon dioxide. Fecal matter in a slurry (15% VW is added to 96 well plates containing YCFA media or other suitable media (1.6 mL). Compounds were added to each individual well to reach a final analyte concentration of 1 or 10 μM, and the material was mixed by pipetting. At set time points a sample was removed, quenched with acetonitrile, and analyzed by LC/MS.

The subject of the next series is CD4^+CD25^+ Treg cells. As to the kind of experiment: In vivo induction of CD4+CD25+ Treg cells in high-fat diet fed mice. The conditions noted are these: C57BL/6 mice fed a high-fat diet; 6% in diet ad libitum; compared to EGCG, acetate, or their combination as separate compounds. An excerpt:
Acylated catechin polyphenols disclosed herein may be useful in modulating cancer markers and for treating cancer.

Consider six compounds from patent publication US20210085640A1, “ACYLATED CATECHIN POLYPHENOLS AND METHODS OF THEIR USE FOR THE TREATMENT OF CANCER” (Flagship Pioneering Innovations V, Inc., priority 2018, published 2021).

On to `CCCC(=O)Oc1cc(OC(=O)CCC)c2c(c1)O[C@H](c1cc(OC(=O)CCC)c(OC(=O)CCC)c(OC(=O)CCC)c1)[C@H](OC(=O)c1cc(OC(=O)CCC)c(OC(=O)CCC)c(OC(=O)CCC)c1)C2` [Compound 1, [(2R,3R)-5,7-di(butanoyloxy)-2-[3,4,5-tri(butanoyloxy)phenyl]chroman-3-yl] 3,4,5-tri(butanoyloxy)benzoate], for which the “Assay 2 (SIF) (% @ Remaining 4 hours)” value in series [1] is recorded as “C (>75% of the tested compound remaining)”. Moreover, the “Assay 1 (SGF) (% Remaining @ 1 hours)” value in series [2] was “C (>75% of the tested compound remaining)”. Besides, in series [3], the “Assay 3 (% Remaining at 24 h)” value is given as “C (>75% of the tested compound remaining)”.
With `CC(=O)Oc1cc(OC(C)=O)c2c(c1)O[C@H](c1cc(OC(C)=O)c(OC(C)=O)c(OC(C)=O)c1)[C@H](OC(=O)c1cc(OC(C)=O)c(OC(C)=O)c(OC(C)=O)c1)C2` [Compound 2, [(2R,3R)-5,7-diacetoxy-2-(3,4,5-triacetoxyphenyl)chroman-3-yl] 3,4,5-triacetoxybenzoate], in series [1], the “Assay 2 (SIF) (% @ Remaining 4 hours)” value is given as “A (<25% of the tested compound remaining)” and the “selective delivery to the upper intestine” value is “can be selectively delivered to the upper intestine”. Also, the “Assay 1 (SGF) (% Remaining @ 1 hours)” value in series [2] is reported as “C (>75% of the tested compound remaining)”. For the same compound, the “induction of CD4^+CD25^+ Treg cells” value in the series on CD4^+CD25^+ Treg cells is listed as “synergistic induction”. The “Assay 3 (% Remaining at 24 h)” value in series [3] is reported as “A (<25% of the tested compound remaining)”.
On to `CCC(=O)Oc1cc(OC(=O)CC)c2c(=O)c(OC(=O)CC)c(-c3ccc(OC(=O)CC)c(OC(=O)CC)c3)oc2c1` [Compound 14, [4-[4-oxo-3,5,7-tri(propanoyloxy)chromen-2-yl]-2-propanoyloxy-phenyl] propanoate], for which the “Assay 2 (SIF) (% @ Remaining 4 hours)” value in series [1] is “C (>75% of the tested compound remaining)”. For the same compound, the “Assay 1 (SGF) (% Remaining @ 1 hours)” value in series [2] is “C (>75% of the tested compound remaining)”. Further, the “Assay 3 (% Remaining at 24 h)” value in series [3] is reported as “C (>75% of the tested compound remaining)”.
Take `CCCC(=O)O[C@H](C)CC(=O)Oc1ccc(/C=C/c2cc(OC(=O)C[C@@H](C)OC(=O)CCC)cc(OC(=O)C[C@@H](C)OC(=O)CCC)c2)cc1` [Compound 16, [4-[(E)-2-[3,5-bis[[(3R)-3-butanoyloxybutanoyl]oxy]phenyl]vinyl]phenyl] (3R)-3-butanoyloxy-butanoate]: in series [2], the “Assay 1 (SGF) (% Remaining @ 1 hours)” value is on record as “C (>75% of the tested compound remaining)”. In addition, the “Assay 3 (% Remaining at 24 h)” value in series [3] is recorded as “A (<25% of the tested compound remaining)”.
For `CCCC(=O)O[C@@H]1[C@@H](OC(=O)CCC)[C@@H](Oc2ccc(N)cc2C(=O)O)OC[C@@H]1OC(=O)CCC` [Compound 17, 5-amino-2-[(2R,3R,4S,5S)-3,4,5-tri(butanoyloxy)tetrahydropyran-2-yl]oxy-benzoic acid], in series [1], the “Assay 2 (SIF) (% @ Remaining 4 hours)” value is given as “A (<25% of the tested compound remaining)” and the “selective delivery to the upper intestine” value is given as “can be selectively delivered to the upper intestine”. Moreover, in series [2], the “Assay 1 (SGF) (% Remaining @ 1 hours)” value is reported as “C (>75% of the tested compound remaining)”. For the same compound, the “Assay 3 (% Remaining at 24 h)” value in series [3] is recorded as “C (>75% of the tested compound remaining)”.
Consider `CC(=O)OC[C@H]1O[C@@H](Oc2c(C)c(C)c3c(c2C)CC[C@@](C)(CCC[C@H](C)CCC[C@H](C)CCCC(C)C)O3)[C@H](OC(C)=O)[C@@H](OC(C)=O)[C@@H]1OC(C)=O` [Compound 19, [(2R,3R,4S,5R,6S)-3,4,5-triacetoxy-6-[(2R)-2,5,7,8-tetramethyl-2-[(4R,8R)-4,8,12-trimethyltridecyl]chroman-6-yl]oxy-tetrahydropyran-2-yl]methyl acetate], for which the “Assay 2 (SIF) (% @ Remaining 4 hours)” value in series [1] is reported as “C (>75% of the tested compound remaining)”. Moreover, the “Assay 1 (SGF) (% Remaining @ 1 hours)” value in series [2] was “C (>75% of the tested compound remaining)”. In series [3], the “Assay 3 (% Remaining at 24 h)” value is “C (>75% of the tested compound remaining)”.
